Assay results: patent US6939879B2, “Use of R (+)-α-(2,3-dimethoxyphenyl)-1-[2-(4-fluorophenyl)ethyl]-4-piperidinemethanol for the treatment of substance induced insomnia” (Aventis Pharmaceuticals Inc., priority 1998, dated 2005)

Tests used:
healthy subjects [1] = assay: Single oral dose in healthy subjects, sedation (Example 4A); assay type: in vivo, human
Method: Forty percent of the subjects receiving the 20 mg dose (2 out of 5) and sixty percent of the subjects receiving the 10 mg dose (3 out of 5) experienced mild to moderate sedation. […]

[2] = system: patients diagnosed with schizophrenia; assay: Insomnia and somnolence reported by patients with schizophrenia, twice daily oral dosing (Example 4B); assay type: in vivo, human
Method: Forty percent of the subjects receiving the 20 mg dose (2 out of 5) and sixty percent of the subjects receiving the 10 mg dose (3 out of 5) experienced mild to moderate sedation. […] The following data were reported.

healthy subjects [3] = assay: Drowsiness in healthy subjects after oral doses (Example 4C); assay type: in vivo, human; conditions: for Drowsiness, % of subjects / Drowsiness, n of subjects: n = 4; for rating of the drowsiness: oral
Description: The following data were reported.

healthy subjects [4] = assay: Drowsiness in healthy subjects, 3-72 mg doses (Example 4D); assay type: in vivo, human
Method: D) In healthy subjects, the COMPOUND was administered in 3 mg (n=4), 9 mg (n=4), 18 mg (n=4), 36 mg (n=4) and 72 mg (n=4) doses along with the placebo (n=5) wherein “n” is the number of subjects.

[5] = system: anaesthetized newborn Sprague Dawley rats; assay: Depression of genioglossal EMG induced by L-Tryptophan and Pargyline; assay type: in vivo, rat; conditions: for prevention of depression of the amplitude of GG inspiratory discharges by L-Trp+Prg: five newborn rats
Method: (§1) Intraperitoneal application of L-Tryptophan (10 mg/kg) and Pargyline (50 mg/kg) to anaesthetized newborn rats depressed the amplitude of the inspiratory discharges of the genioglossal muscle and induced obstructive apneas (OA).
(§2) Experiments were carried out on newborn Sprague Dawley rats from Iffa Credo breeding center. The animals were anaesthetized by intraperitoneal injection of low doses of sodium pentobarbitone (7-10 mg/kg), kept lying (dorsal cubitus) on a warming blanket and were spontaneously ventilating.
(§3) The EMG activity of the genioglossal muscles and the diaphragm were recorded with fine insulated wires (bipolar recordings) inserted within the muscles, filtered (100-3,000 Hz), amplified (×5-10,000) and integrated (time constant 50 ms). The rib cage movements were recorded via a captor gently touching the lower ribs and/or the abdominal wall. The air flow changes resulting from the respiratory chest movements were recorded via a facial mask and a highly sensitive pressure recorder.
Then, the animal received an intraperitoneal injection of L-Tryptophan plus Pargyline (“L-Trp+Parg”) 10 mg/kg and 50 mg/kg, respectively, and the changes in EMG amplitudes were checked every 10 minutes and were expressed as % of control values.

[6] = system: anaesthetized newborn Sprague Dawley rats; assay: Occurrence of obstructive apnea induced by L-Tryptophan and Pargyline injection; assay type: in vivo, rat
Method: as §1, §2, §3

[7] = pre-treatment 0.1 mg/kg intraperitoneal, ten newborn rats
[8] = pre-treatment 0.1 mg/kg, L-Trp+Parg 10 min later
[9] = pre-treatment 1 mg/kg, ten rats

With COc1cccc([C@H](O)C2CCN(CCc3ccc(F)cc3)CC2)c1OC [COMPOUND, R-(+)-α-(2,3-Dimethoxyphenyl)-1-[2-(4-fluorophenyl)ethyl]-4-piperidinemethanol] the “subjects who experienced mild to moderate sedation” value (healthy subjects [1]; single 10 mg oral dose) was 3 out of 5, the “subjects who experienced mild to moderate sedation” value (healthy subjects [1]; single 20 mg oral dose) was 2 out of 5 and the “Insomnia, % of subjects” value ([2]; 10 mg (5 mg twice daily) oral) was “N = 0; 0%”. The “Insomnia, N (number of subjects that reported the effect)” value (“Insomnia, N” for short) ([2]; 10 mg (5 mg twice daily) oral) was “N = 0; 0%”, the “Somnolence, % of subjects” value ([2]; 10 mg (5 mg twice daily) oral) was 20% and the “Somnolence, N (number of subjects that reported the effect)” value (“Somnolence, N” below) ([2]; 10 mg (5 mg twice daily) oral) was 3. For the same molecule, the “Insomnia, % of subjects” value ([2]; 20 mg (10 mg twice daily) oral) was 21.4%, the “Insomnia, N” value ([2]; 20 mg (10 mg twice daily) oral) was “N = 3:” and the “Somnolence, % of subjects” value ([2]; 20 mg (10 mg twice daily) oral) was 15.4%. The “Somnolence, N” value ([2]; 20 mg (10 mg twice daily) oral) was “N = 1;”, the “Insomnia, % of subjects” value ([2]; 40 mg (20 mg twice daily) oral) was 23.1% and the “Insomnia, N” value ([2]; 40 mg (20 mg twice daily) oral) was “N = 3;”. For the same molecule, the “Somnolence, % of subjects” value ([2]; 40 mg (20 mg twice daily) oral) was 15.4%, the “Somnolence, N” value ([2]; 40 mg (20 mg twice daily) oral) was “N = 2;” and the “Drowsiness, % of subjects” value (healthy subjects [3]; 9 mg oral) was 50%. The “Drowsiness, n of subjects” value (healthy subjects [3]; 9 mg oral) was “n = 2”, the “Drowsiness, % of subjects” value (healthy subjects [3]; 18 mg oral) was 100% and the “Drowsiness, n of subjects” value (healthy subjects [3]; 18 mg oral) was “n = 4”. For the same molecule, the “Drowsiness, % of subjects” value (healthy subjects [3]; 36 mg oral) was 100%, the “Drowsiness, n of subjects” value (healthy subjects [3]; 36 mg oral) was “n = 4” and the “rating of the drowsiness” value (healthy subjects [3]; 72 mg and above) was “moderate to severe”. The “Drowsiness, % of subjects” value (healthy subjects [3]; 72 mg oral) was 75%, the “Drowsiness, n of subjects” value (healthy subjects [3]; 72 mg oral) was “n = 3” and the “Drowsiness, % of subjects” value (healthy subjects [3]; 108 mg oral) was 100%. The “Drowsiness, n of subjects” value (healthy subjects [3]; 108 mg oral) was “n = 4”, the “Drowsiness, % of subjects” value (healthy subjects [3]; 138 mg oral) was 100% and the “Drowsiness, n of subjects” value (healthy subjects [3]; 138 mg oral) was “n = 4”. The “rating of the drowsiness” value (healthy subjects [3]; doses below 72 mg) was “mild or moderate”, the drowsiness reported (healthy subjects [4]; 3 mg, 9 mg, 18 mg, 36 mg doses (n=4 each)) was “Only the group receiving the 72 mg dose reported drowsiness” and the “number of subjects that reported drowsiness” value (healthy subjects [4]; 72 mg dose (n=4)) was 3. For the same molecule, the “depression of the mean GG discharge after L-Trp+Parg injection” value [5, 7] was 30-50%, the “prevention of depression of genioglossal (GG) discharge induced by L-Trp+Parg” value (“prevention of depression of genioglossal” for short) [5, 7] was “did not prevent” and the “prevention of depression of genioglossal” value ([5]; pre-treatment 1 mg/kg intraperitoneal, ten newborn rats) was “efficient in preventing the GG depression”. For the same molecule, the “prevention of depression of genioglossal” value ([5]; pre-treatment 3 mg/kg intraperitoneal, ten newborn rats) was “confirmed the efficiency”, the “animals that eventually died of respiratory distress” value [6, 8] was 4 of the 10 and the “newborn rats in which L-Trp+Parg injection induced OAs” value [6, 8] was 9 of 10. The “newborn rats that did not present short lasting OAs at all” value ([6]; pre-treatment 1 mg/kg) was “Five out of ten”, the “newborn rats which displayed OAs” value ([6]; pre-treatment 1 mg/kg) was 5 of 10 and the “animals with infrequent OAs (less than 5 short lasting OAs in 60 minutes)” value ([6]; pre-treatment 1 mg/kg, among the 5 of 10 with OAs) was 2. The “peak frequency of occurrence of short lasting OAs (mean curve)” value ([6]; pre-treatment 1 mg/kg, between 20-40 min after the injection, significantly less than in the 0.1 mg/kg sample) was 4 OAs per 10 minute period, the “newborn rats with long lasting OAs” value [6, 9] was “one” and the “survival to L-Trp+Parg injection” value [6, 9] was “all animals survived”. For the same molecule, the “treated rats with a total of less than 3 short lasting OAs” value ([6]; pre-treatment 3 mg/kg) was 3 of 10, the “treated rats with frequent short lasting OAs” value ([6]; pre-treatment 3 mg/kg) was 2 of 10 and the “treated rats with no short lasting OAs” value ([6]; pre-treatment 3 mg/kg) was 5 of 10. The “survival to L-Trp+Parg injection” value ([6]; pre-treatment 3 mg/kg, ten rats) was “all survived”.
For Cn1c(=O)c2[nH]cnc2n(C)c1=O [theophylline, reference compound], the “prevention of depression of the amplitude of GG inspiratory discharges by L-Trp+Prg” value ([5]; pre-treatment 10 mg/kg) was “not prevented”, the “prevention of depression of the amplitude of GG inspiratory discharges by L-Trp+Prg” value ([5]; pre-treatment 30 mg/kg) was “not prevented” and the “prevention of induction of OAs after L-Trp+Prg injection” value ([6]; pre-treatment 10 mg/kg) was “not prevented”. The “prevention of induction of OAs after L-Trp+Prg injection” value ([6]; pre-treatment 30 mg/kg) was “not prevented”.
